Data published in PubChem BioAssay AID1963962 (Molecular Pharmacology Branch, DTP, NCI, 2024).

Tested on: 967376-340-R-J2-PDC multicell spheroid viability
Assay: Anticancer human tumor 967376-340-R-J2-PDC patient-derived colon adenocarcinoma cell line growth inhibition [PI3K]
Details: for viability, T/C: stronger effect = lower value
Procedure, shortened: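 Combination activity was assessed by viability in multicellular tumor spheroids carrying HUVEC and MSC components. Agents were tested with PI3K inhibitors from a Cmax-based top dose (or 10 microM) downward in half-log increments.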

[1] = curve of first compound, second compound 0.00316 µM
[2] = curve of first compound, second compound 0.01 µM
[3] = curve of first compound, second compound 0.0316 µM
[4] = curve of first compound, second compound 0.1 µM
[5] = curve of first compound, second compound 0.316 µM
[6] = curve of first compound, second compound 1 µM
[7] = second compound 0.00316 µM, first compound 0.0316 µM
[8] = second compound 0.00316 µM, first compound 0.1 µM
[9] = second compound 0.00316 µM, first compound 0.316 µM
[10] = second compound 0.00316 µM, first compound 1 µM
[11] = second compound 0.00316 µM, first compound 3.16 µM
[12] = second compound 0.00316 µM, first compound 10 µM
[13] = second compound 0.01 µM, first compound 0.0316 µM
[14] = second compound 0.01 µM, first compound 0.1 µM
[15] = second compound 0.01 µM, first compound 0.316 µM
[16] = second compound 0.01 µM, first compound 1 µM
[17] = second compound 0.01 µM, first compound 3.16 µM
[18] = second compound 0.01 µM, first compound 10 µM
[19] = second compound 0.0316 µM, first compound 0.0316 µM
[20] = second compound 0.0316 µM, first compound 0.1 µM
[21] = second compound 0.0316 µM, first compound 0.316 µM
[22] = second compound 0.0316 µM, first compound 1 µM
[23] = second compound 0.0316 µM, first compound 3.16 µM
[24] = second compound 0.0316 µM, first compound 10 µM
[25] = second compound 0.1 µM, first compound 0.0316 µM
[26] = second compound 0.1 µM, first compound 0.1 µM
[27] = second compound 0.1 µM, first compound 0.316 µM
[28] = second compound 0.1 µM, first compound 1 µM
[29] = second compound 0.1 µM, first compound 3.16 µM
[30] = second compound 0.1 µM, first compound 10 µM
[31] = second compound 0.316 µM, first compound 0.0316 µM
[32] = second compound 0.316 µM, first compound 0.1 µM
[33] = second compound 0.316 µM, first compound 0.316 µM
[34] = second compound 0.316 µM, first compound 1 µM
[35] = second compound 0.316 µM, first compound 3.16 µM
[36] = second compound 0.316 µM, first compound 10 µM
[37] = second compound 1 µM, first compound 0.0316 µM
[38] = second compound 1 µM, first compound 0.1 µM
[39] = second compound 1 µM, first compound 0.316 µM
[40] = second compound 1 µM, first compound 1 µM
[41] = second compound 1 µM, first compound 3.16 µM
[42] = second compound 1 µM, first compound 10 µM
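Note: spheroids exposed to agents for 7 days before read-out.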
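Throughout, for viability, T/C: luminescence used as surrogate of cell viability.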

With Cn1ncc(Cl)c1-c1cc(C(=O)NC(CN)Cc2cccc(F)c2)sc1Cl (centres undefined) + CC(Nc1ccc2c(c1)OCCn1cc(N3C(=O)OCC3C(F)F)nc1-2)C(N)=O the IC50 [1] was > 10 µM, the IC50 [2] was > 10 µM and the IC50 [3] was > 10 µM. For the same molecule, the IC50 [4] was > 10 µM, the IC50 [5] was > 10 µM and the IC50 [6] was 4.19 µM. The viability, T/C [7] was 102%, the viability, T/C [8] was 94.4% and the viability, T/C [9] was 86.6%. For the same molecule, the viability, T/C [10] was 75%, the viability, T/C [11] was 71% and the viability, T/C [12] was 61.3%. It also gave a viability, T/C [13] of 92.3%, a viability, T/C [14] of 93.3% and a viability, T/C [15] of 90.8%. It also gave a viability, T/C [16] of 67.1%, a viability, T/C [17] of 67.8% and a viability, T/C [18] of 71.3%. It also gave a viability, T/C [19] of 91.2%, a viability, T/C [20] of 98% and a viability, T/C [21] of 75.2%. It also gave a viability, T/C [22] of 83.2%, a viability, T/C [23] of 67.4% and a viability, T/C [24] of 55.8%. For the same molecule, the viability, T/C [25] was 83.5%, the viability, T/C [26] was 72.5% and the viability, T/C [27] was 87.7%. It also gave a viability, T/C [28] of 65%, a viability, T/C [29] of 55.8% and a viability, T/C [30] of 57.8%. For the same molecule, the viability, T/C [31] was 68%, the viability, T/C [32] was 66.9% and the viability, T/C [33] was 59.2%. It also gave a viability, T/C [34] of 67.8%, a viability, T/C [35] of 59.9% and a viability, T/C [36] of 45.9%. It also gave a viability, T/C [37] of 63.1%, a viability, T/C [38] of 49.3% and a viability, T/C [39] of 53.9%. The viability, T/C [40] was 68.1%, the viability, T/C [41] was 53.9% and the viability, T/C [42] was 38.5%.

In the case of CC(Cn1ccc(-c2ccc(C#N)c(Cl)c2)n1)NC(=O)c1cc(C(C)O)[nH]n1 (centres undefined), the viability, T/C (compound 0.0316 µM) is reported as 105% [middle of 4 runs], the viability, T/C (compound 0.1 µM) is reported as 99.6% [middle of 4 runs] and the viability, T/C (compound 0.316 µM) is reported as 101% [middle of 4 runs]. The viability, T/C (compound 1 µM) was 101% [middle of 4 runs], the viability, T/C (compound 3.16 µM) was 103% [middle of 4 runs] and the IC50 (curve of compound) was > 10 µM.

In the case of CC(=O)c1c(C)c2cnc(Nc3ccc(N4CCNCC4)cn3)nc2n(C2CCCC2)c1=O + COc1c(OCCCN2CCOCC2)ccc2c3n(c(=NC(=O)c4cnc(N)nc4)nc12)CCN3, the IC50 [1] is reported as > 0.1 µM, the IC50 [2] is reported as > 0.1 µM and the IC50 [3] is reported as > 0.1 µM. The IC50 [4] was > 0.1 µM, the IC50 [5] was < 0.000316 µM and the IC50 [6] was < 0.000316 µM. For the same molecule, the viability, T/C (second compound 0.00316 µM, first compound 0.000316 µM) was 92.9%, the viability, T/C (second compound 0.00316 µM, first compound 0.001 µM) was 95.8% and the viability, T/C (second compound 0.00316 µM, first compound 0.00316 µM) was 94.7%. For the same molecule, the viability, T/C (second compound 0.00316 µM, first compound 0.01 µM) was 88.5%, the viability, T/C [7] was 87.5% and the viability, T/C [8] was 74.7%. The viability, T/C (second compound 0.01 µM, first compound 0.000316 µM) was 89.8%, the viability, T/C (second compound 0.01 µM, first compound 0.001 µM) was 99.5% and the viability, T/C (second compound 0.01 µM, first compound 0.00316 µM) was 92.2%. The viability, T/C (second compound 0.01 µM, first compound 0.01 µM) was 101%, the viability, T/C [13] was 78% and the viability, T/C [14] was 60.9%. For the same molecule, the viability, T/C (second compound 0.0316 µM, first compound 0.000316 µM) was 72.4%, the viability, T/C (second compound 0.0316 µM, first compound 0.001 µM) was 79.9% and the viability, T/C (second compound 0.0316 µM, first compound 0.00316 µM) was 73.2%. For the same molecule, the viability, T/C (second compound 0.0316 µM, first compound 0.01 µM) was 73.8%, the viability, T/C [19] was 86.3% and the viability, T/C [20] was 74.3%. For the same molecule, the viability, T/C (second compound 0.1 µM, first compound 0.000316 µM) was 64.2%, the viability, T/C (second compound 0.1 µM, first compound 0.001 µM) was 49.7% and the viability, T/C (second compound 0.1 µM, first compound 0.00316 µM) was 64.5%. It also gave a viability, T/C (second compound 0.1 µM, first compound 0.01 µM) of 59.3%, a viability, T/C [25] of 62.1% and a viability, T/C [26] of 54.6%. It also gave a viability, T/C (second compound 0.316 µM, first compound 0.000316 µM) of 46.7%, a viability, T/C (second compound 0.316 µM, first compound 0.001 µM) of 39% and a viability, T/C (second compound 0.316 µM, first compound 0.00316 µM) of 37%. It also gave a viability, T/C (second compound 0.316 µM, first compound 0.01 µM) of 42.2%, a viability, T/C [31] of 45.5% and a viability, T/C [32] of 44.7%. It also gave a viability, T/C (second compound 1 µM, first compound 0.000316 µM) of 41.5%, a viability, T/C (second compound 1 µM, first compound 0.001 µM) of 37.3% and a viability, T/C (second compound 1 µM, first compound 0.00316 µM) of 34.8%. For the same molecule, the viability, T/C (second compound 1 µM, first compound 0.01 µM) was 33.5%, the viability, T/C [37] was 34.3% and the viability, T/C [38] was 27.9%.

With CCCS(=O)(=O)Nc1ccc(F)c(C(=O)c2c[nH]c3ncc(-c4ccc(Cl)cc4)cc23)c1F + COc1c(OCCCN2CCOCC2)ccc2c3n(c(=NC(=O)c4cnc(N)nc4)nc12)CCN3 the IC50 [1] was > 10 µM, the IC50 [2] was > 10 µM and the IC50 [3] was > 10 µM. For the same molecule, the IC50 [4] was > 10 µM, the IC50 [5] was < 0.0316 µM and the IC50 [6] was < 0.0316 µM. For the same molecule, the viability, T/C [7] was 94.8%, the viability, T/C [8] was 94.7% and the viability, T/C [9] was 82.8%. The viability, T/C [10] was 101%, the viability, T/C [11] was 74.3% and the viability, T/C [12] was 59.6%. For the same molecule, the viability, T/C [13] was 104%, the viability, T/C [14] was 78.9% and the viability, T/C [15] was 81.8%. For the same molecule, the viability, T/C [16] was 73.6%, the viability, T/C [17] was 90% and the viability, T/C [18] was 61.8%. It also gave a viability, T/C [19] of 68.1%, a viability, T/C [20] of 63.4% and a viability, T/C [21] of 73.8%. The viability, T/C [22] was 79%, the viability, T/C [23] was 69.7% and the viability, T/C [24] was 69.1%. The viability, T/C [25] was 63.2%, the viability, T/C [26] was 58.5% and the viability, T/C [27] was 77%. For the same molecule, the viability, T/C [28] was 51.1%, the viability, T/C [29] was 63% and the viability, T/C [30] was 54%. The viability, T/C [31] was 39.4%, the viability, T/C [32] was 36.5% and the viability, T/C [33] was 57.1%. It also gave a viability, T/C [34] of 34.6%, a viability, T/C [35] of 68.1% and a viability, T/C [36] of 58.8%. For the same molecule, the viability, T/C [37] was 31.6%, the viability, T/C [38] was 41.6% and the viability, T/C [39] was 25.8%. The viability, T/C [40] was 46.1%, the viability, T/C [41] was 41% and the viability, T/C [42] was 34.8%.

For C#Cc1c(F)ccc2cc(O)cc(-c3ncc4c(N5CC6CCC(C5)N6)nc(OCC56CCCN5CC(F)C6)nc4c3F)c12 (centres undefined) + CC(Nc1ncnc2nc[nH]c12)c1cc2cccc(Cl)c2c(=O)n1-c1ccccc1, the IC50 [3] was > 10 µM, the IC50 [4] was > 10 µM and the IC50 [5] was > 10 µM. The IC50 [6] was > 10 µM, the IC50 (curve of first compound, second compound 3.16 µM) was > 10 µM and the IC50 (curve of first compound, second compound 10 µM) was > 10 µM. The viability, T/C [19] was 103%, the viability, T/C [20] was 113% and the viability, T/C [21] was 94.2%. It also gave a viability, T/C [22] of 85.8%, a viability, T/C [23] of 85.5% and a viability, T/C [24] of 53.8%. The viability, T/C [25] was 99.8%, the viability, T/C [26] was 110% and the viability, T/C [27] was 80.5%. For the same molecule, the viability, T/C [28] was 97.5%, the viability, T/C [29] was 77% and the viability, T/C [30] was 88.9%. For the same molecule, the viability, T/C [31] was 104%, the viability, T/C [32] was 97.2% and the viability, T/C [33] was 99.7%. The viability, T/C [34] was 90.6%, the viability, T/C [35] was 99.5% and the viability, T/C [36] was 78.8%. For the same molecule, the viability, T/C [37] was 96.5%, the viability, T/C [38] was 110% and the viability, T/C [39] was 109%. The viability, T/C [40] was 93%, the viability, T/C [41] was 72.8% and the viability, T/C [42] was 70.8%. For the same molecule, the viability, T/C (second compound 3.16 µM, first compound 0.0316 µM) was 106%, the viability, T/C (second compound 3.16 µM, first compound 0.1 µM) was 92.4% and the viability, T/C (second compound 3.16 µM, first compound 0.316 µM) was 94.6%. For the same molecule, the viability, T/C (second compound 3.16 µM, first compound 1 µM) was 71.2%, the viability, T/C (second compound 3.16 µM, first compound 3.16 µM) was 78.3% and the viability, T/C (second compound 3.16 µM, first compound 10 µM) was 71.8%. The viability, T/C (second compound 10 µM, first compound 0.0316 µM) was 84.1%, the viability, T/C (second compound 10 µM, first compound 0.1 µM) was 76.8% and the viability, T/C (second compound 10 µM, first compound 0.316 µM) was 78.8%. For the same molecule, the viability, T/C (second compound 10 µM, first compound 1 µM) was 61.6%, the viability, T/C (second compound 10 µM, first compound 3.16 µM) was 59.5% and the viability, T/C (second compound 10 µM, first compound 10 µM) was 61.5%.
